{"source": "patent US20240207282A1", "about": "“METHOD OF INCREASING CHAPERONE MEDIATED AUTOPHAGY BY STABILIZING THE INTERACTION OF RETINOIC ACID RECEPTOR-ALPHA AND AN INHIBITOR” (ALBERT EINSTEIN COLLEGE OF MEDICINE, priority 2021, published 2024)", "key": {"CMA network": {"system": "CMA network", "experiment": "Comparative transcriptomic analysis / qPCR of CMA network", "format": "cell-based, mouse", "settings": "for changes in the transcriptome: treated cells", "experimental": "mRNA-qPCR: RNA was extracted from individual retinas. Total RNA from retinas was extracted using TRIzol Reagent (Invitrogen), and reverse transcription performed using the High-Capacity cDNA Reverse Transcription Kit (Applied Biosystems) according to the manufacturer's instructions. Quantitative real-time PCR was performed in a Light Cycler 480 Instrument (Roche) with Taqman Universal PCR Master Mix using Taqman assays (Life Tech-nologies). The following probes were used: Mm01184405_m1 (rhodopsin), F-5′-CTTAGCTTCTGGGATGC CCC-3′, R-5′-[…]-3′ (lamp2a) F-5′-AA GGACTCCTA TAGTGGG TGACGA-3′, R-5′-[…]-3′ (mouse β-actin).\nMicroarray: Total RNA of the treated cells was extracted using TRIzol (Invitrogen) and purified with RNeasy chromatography (Qiagen). Cy3-labeled RNA (0.6 μg) from each condition were hybridized to Agilent Mouse 8×60K. Data were processed using the oligo package and normalized using Robust Multiarray Average (RMA) method. Gene set was filtered to remove genes without Entrez or GO annotation (21912 genes out of 55682) and genes with an […]. The full microarray Gomez-Sintes et al. raw data will be deposited in GEO upon acceptance of the manuscript. Pathway analysis was performed using the STRING database ([…]).\nCMA index was calculated using data set from Ly (J. Proteome Research (2016) 15: 1350-1359), Gao (2020), and Lane (2020). Briefly, each element of the CMA network was attributed a weight. As LAMP-2A is the rate limiting component of CMA, it was given a weight of 2. Every other element received a weight of 1. Then, every element was attributed direction score that is +1 or −1 based on the known effect of a given element on CMA activity. The score was then calculated as the weighted/directed average of expression counts of every element of the CMA network."}, "cellular RARα and NCoR1": {"target": "T1, cellular RARα and NCoR1 (Mus musculus, UniProt P11416)", "T1 construct": "endogenous in cells; host or cells: NIH3T3", "T1 sequence (P11416 whole entry)": "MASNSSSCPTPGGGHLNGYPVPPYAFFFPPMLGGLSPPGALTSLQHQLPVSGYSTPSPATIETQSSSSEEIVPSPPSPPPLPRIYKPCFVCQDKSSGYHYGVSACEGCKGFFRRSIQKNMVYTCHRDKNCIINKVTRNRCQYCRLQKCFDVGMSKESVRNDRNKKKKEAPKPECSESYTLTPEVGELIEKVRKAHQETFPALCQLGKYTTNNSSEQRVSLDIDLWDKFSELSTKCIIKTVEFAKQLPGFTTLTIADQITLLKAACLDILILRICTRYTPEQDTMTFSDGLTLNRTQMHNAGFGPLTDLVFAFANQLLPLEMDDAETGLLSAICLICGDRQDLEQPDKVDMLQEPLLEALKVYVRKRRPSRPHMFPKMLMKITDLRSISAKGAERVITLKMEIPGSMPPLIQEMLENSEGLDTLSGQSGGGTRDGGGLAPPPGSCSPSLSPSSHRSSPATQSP", "T1 sequence (Q60974 whole entry partner)": "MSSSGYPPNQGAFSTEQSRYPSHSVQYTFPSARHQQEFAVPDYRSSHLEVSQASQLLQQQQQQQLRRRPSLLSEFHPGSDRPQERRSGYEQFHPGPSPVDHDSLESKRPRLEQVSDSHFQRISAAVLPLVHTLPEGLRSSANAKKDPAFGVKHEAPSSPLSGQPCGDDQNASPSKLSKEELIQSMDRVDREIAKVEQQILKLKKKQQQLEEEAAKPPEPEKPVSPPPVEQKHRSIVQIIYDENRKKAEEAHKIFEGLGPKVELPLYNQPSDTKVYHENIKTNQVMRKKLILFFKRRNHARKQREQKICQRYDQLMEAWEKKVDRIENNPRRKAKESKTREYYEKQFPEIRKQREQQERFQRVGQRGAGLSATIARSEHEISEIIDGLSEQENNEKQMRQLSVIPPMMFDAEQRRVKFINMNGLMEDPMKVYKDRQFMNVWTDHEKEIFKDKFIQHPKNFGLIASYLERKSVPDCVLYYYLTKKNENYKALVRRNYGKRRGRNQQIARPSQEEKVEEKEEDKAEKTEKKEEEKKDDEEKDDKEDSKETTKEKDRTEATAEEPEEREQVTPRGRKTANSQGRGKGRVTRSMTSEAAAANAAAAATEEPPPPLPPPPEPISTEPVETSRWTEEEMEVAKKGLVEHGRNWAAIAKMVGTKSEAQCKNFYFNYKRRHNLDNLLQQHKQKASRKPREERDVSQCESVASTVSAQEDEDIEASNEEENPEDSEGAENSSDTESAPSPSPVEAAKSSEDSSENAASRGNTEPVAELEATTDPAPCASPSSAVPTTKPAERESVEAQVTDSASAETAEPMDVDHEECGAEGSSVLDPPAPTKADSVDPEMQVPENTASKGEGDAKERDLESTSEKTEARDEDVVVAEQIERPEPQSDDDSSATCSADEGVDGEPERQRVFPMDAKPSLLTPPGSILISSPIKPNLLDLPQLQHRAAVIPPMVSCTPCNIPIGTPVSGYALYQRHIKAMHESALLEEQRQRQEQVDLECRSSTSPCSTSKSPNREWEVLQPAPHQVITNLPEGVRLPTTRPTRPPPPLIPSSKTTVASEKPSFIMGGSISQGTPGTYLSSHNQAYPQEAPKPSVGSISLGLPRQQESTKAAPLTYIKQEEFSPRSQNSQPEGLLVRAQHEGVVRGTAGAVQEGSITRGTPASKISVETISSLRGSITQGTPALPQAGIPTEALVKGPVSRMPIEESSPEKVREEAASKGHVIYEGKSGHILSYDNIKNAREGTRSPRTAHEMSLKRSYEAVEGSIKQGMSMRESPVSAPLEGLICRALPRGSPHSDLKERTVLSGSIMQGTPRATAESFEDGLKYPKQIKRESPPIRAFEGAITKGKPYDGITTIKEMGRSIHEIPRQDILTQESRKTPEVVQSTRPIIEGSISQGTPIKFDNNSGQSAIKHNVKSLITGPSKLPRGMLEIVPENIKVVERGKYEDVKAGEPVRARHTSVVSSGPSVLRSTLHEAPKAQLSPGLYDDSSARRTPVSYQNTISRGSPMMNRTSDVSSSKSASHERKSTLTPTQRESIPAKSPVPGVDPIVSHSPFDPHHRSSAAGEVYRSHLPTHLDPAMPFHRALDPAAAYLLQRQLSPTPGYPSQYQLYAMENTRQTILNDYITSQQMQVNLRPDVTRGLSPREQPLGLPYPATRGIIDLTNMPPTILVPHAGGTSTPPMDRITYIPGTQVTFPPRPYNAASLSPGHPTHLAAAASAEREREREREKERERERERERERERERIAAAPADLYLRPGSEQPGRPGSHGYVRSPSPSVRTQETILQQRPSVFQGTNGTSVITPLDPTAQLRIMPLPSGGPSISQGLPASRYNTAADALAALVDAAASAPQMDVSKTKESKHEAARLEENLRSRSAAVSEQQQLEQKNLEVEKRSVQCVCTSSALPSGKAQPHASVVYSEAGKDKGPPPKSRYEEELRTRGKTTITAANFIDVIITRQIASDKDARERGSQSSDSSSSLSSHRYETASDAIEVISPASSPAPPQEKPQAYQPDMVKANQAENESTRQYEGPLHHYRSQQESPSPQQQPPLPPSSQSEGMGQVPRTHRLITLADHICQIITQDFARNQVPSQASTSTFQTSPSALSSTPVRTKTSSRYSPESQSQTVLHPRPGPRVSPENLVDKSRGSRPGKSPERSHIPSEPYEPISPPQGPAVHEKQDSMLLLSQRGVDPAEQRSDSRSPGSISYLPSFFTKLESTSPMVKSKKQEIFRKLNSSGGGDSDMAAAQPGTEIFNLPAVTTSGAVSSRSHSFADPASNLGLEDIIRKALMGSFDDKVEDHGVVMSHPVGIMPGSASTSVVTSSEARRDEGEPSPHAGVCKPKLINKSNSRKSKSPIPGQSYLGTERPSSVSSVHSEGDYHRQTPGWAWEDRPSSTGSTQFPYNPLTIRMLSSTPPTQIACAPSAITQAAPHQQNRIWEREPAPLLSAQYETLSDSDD", "experiment": "Streptavidin pulldown of RARα and NCoR1 with biotinylated CA compound", "format": "binding", "settings": "NIH3T3, 10 μM, 24 h"}, "NIH3T3": {"system": "NIH3T3", "experiment": "Intracellular proteolysis of long half-life proteins (3H-leucine)", "format": "cell-based, mouse", "settings": "10 μM; duration of increase after addition", "experimental": "Proteolysis was calculated from aliquots of the medium taken at different times and precipitated in trichloroacetic acid, as the amount of acid-precipitable radioactivity transformed to acid-soluble radioactivity at each time."}, "human cells": {"system": "human cells", "experiment": "CMA activity, KFERQ-PS-Dendra reporter in human cells", "format": "cell-based", "experimental": "Cells: NIH3T3 mouse fibroblasts and the N2a neuroblastoma cell line were obtained from the American Type Culture Collection and were validated by genomic PCR. Primary human fibroblasts (GM01651) were from Coriell Repository. All the cells lines were tested for mycoplasma contamination using DNA staining protocol with Hoechst 33258 dye. Knock-down of NCoR1 was done using lentiviral mediated shRNA (SHCLNG-NM_011308) from the Sigma Mission library following standard procedures. Efficiency of knock-down was tested by immunoblot. Cell viability was measured using the CellTiter-Blue kit (Promega) 24 h after the addition of the different stressors according to manufacturer's instructions.\nCMA activity: Cells were transduced with lentivirus carrying the KFERQ-PS-Dendra reporter as before. Cells were photoactivated by exposure to a 3.5 mA (current constant) light emitting diode (LED: Norlux, 405 nm) for 3 min and then plated in glass-bottom 96 well plates. At the desired times, cells were fixed with 4% PFA and imaged using high-content microscopy (Operetta system, Perkin Elmer). Images were quantified using the manufacturer's software in a minimum of 1,200 cells in 9 independent fields per well. […] To avoid con-funding effects for drug-induced changes in cell volume or adherence to the plate that could bring a fraction of the cells per field outside of focus, we set a threshold to count only cells that have at least 1/10 of the average number of […] detected in the untreated wells for each cell type (3-4 puncta/cell in the case of NIH3T3 and N2a cells and 5 puncta/cell in primary human fibroblasts). […] Slices were mounted in DAPI-Fluoromount-G to highlight the cell nucleus and allow quantification of puncta per cell. Images were acquired in x-y-z planes with an Axiovert 200 fluorescence microscope (Carl Zeiss Ltd) with a ×63 objective and 1.4 numerical aperture, mounted with an ApoTome.2 slider or with a Confocal microscope (TCS SP5; Leica) using an HCX Plan Apo CS×63.0 1.40 NA oil objective and the Leica Application Suite X (LAS X)."}, "[1]": {"experiment": "Pharmacokinetics in mice (plasma and brain)", "format": "in vivo, mouse", "settings": "male, ICR (CD-1), mouse, po, administered orally", "experimental": "ICR (CD-1) male mice were fasted at least three hours and water was available ad libitum before the study. Animals were housed in a controlled environment, target conditions: temperature 18 to 29° C., relative humidity 30 to 70%. Temperature and relative humidity was monitored daily. An electronic time controlled lighting system was used to provide a 12 hr light/12 hr dark cycle. 3 mice for each indicated time point were administered 30 mg/Kg CA39 or CA77 by oral gavage or 1 mg/Kg CA39 or CA77 by intravenous injection using 30% PEG-400, 65% D5W (5% dextrose in water), 5% Tween-80 vehicle. Mice were sacrificed, and brain samples were harvested at 0 hr, 0.25 hr, 0.5 hr, 1 hr, 2 hr, 4 hr, 8 hr, 24 hr, and analyzed for CA39 or CA77 levels using LC-MS/MS. Pharmacokinetics parameters were calculated using Phoenix WinNonlin 6.3. Experiments performed at SIMM-SERVIER joint Biopharmacy Laboratory."}, "[2]": {"experiment": "Chronic toxicity in mice (blood count, histopathology)", "format": "in vivo", "settings": "chronic (5 months) daily oral administration", "experimental": "Liver, lung and kidneys from CA-treated animals were dissected and fixed in 1% PFA overnight and paraffin embedded. Tissues were sectioned, stained with hematoxylin and eosin (H&E) and analyzed by an expert pathologist, blind to the treatment groups, to score for possible presence of toxicity in these organs. Scoring 1-6 was used assigning 6 to those observations clinically relevant. Individual scoring per parameter and per organ and average scoring per organ were performed. Blood cell count in the groups of mice administered vehicle or CA was analyzed in tail blood drawn monthly and at the moment of tissue dissection using an Oxford Science Forcyte Blood Analysis Unit."}}, "data": [{"smiles": "CC1(C)CC=C(c2cnc3ccccc3c2)c2cc(C(=O)Nc3ccc(C(=O)O)cc3)ccc21", "note": "[BMS614]", "values": [{"measurement": "changes in the transcriptome", "setting": "CMA network", "result": "marked changes in the transcriptome"}]}, {"smiles": "O=C(CCCC[C@H]1SCC2NC(=O)NC21)NCCCOCCOCCOCCCNC(=O)c1ccc(C2=Nc3ccc(Cl)cc3OC2)cc1", "note": "(stereo partly drawn) [biotinylated CA compound]", "values": [{"measurement": "co-immunoprecipitation of cellular RARα and NCoR1", "setting": "cellular RARα and NCoR1", "result": "could be co-immunoprecipitated"}]}, {"smiles": "Cc1ccc(C2=Nc3ccc(Cl)cc3OC2)cc1", "note": "[AR7, reference compound]", "values": [{"measurement": "intracellular rates of degradation of long-lived proteins", "setting": "NIH3T3", "result": "sustained only for the first 12 h after addition of the compound"}, {"measurement": "number of CMA network components with changed expression", "setting": "CMA network; of the 17 currently accepted components", "result": 8}, {"measurement": "changes in the transcriptome", "setting": "CMA network", "result": "only induced changes in the expression of a discrete fraction of genes"}, {"measurement": "CMA activation", "setting": "human cells", "result": "very discrete"}]}, {"smiles": "CC(=O)Nc1ccc(-c2cnc3cc(Cl)ccc3n2)cc1", "note": "[CA77.1]", "values": [{"measurement": "Kp", "setting": "[1]; brain/plasma, read-out: AUC brain/plasma", "result": 5.73}, {"measurement": "half-life", "setting": "[1]; plasma, read-out: Plasma half-life (converted)", "result": 3, "unit": "h"}, {"measurement": "peripheral blood or major organ toxicity", "setting": "[2]", "result": "lack of peripheral blood or major organ (liver, lung, kidney) toxicity"}]}]}
